Here are results for six compounds from publication PMC3237634 (Bioorganic & medicinal chemistry letters, 2011).

Like-named read-outs stand apart in the source and are kept apart here.

Assay [1] has as its target T1, hPEPT1 (Homo sapiens, UniProt P46059).
T1 sequence (P46059 1-708): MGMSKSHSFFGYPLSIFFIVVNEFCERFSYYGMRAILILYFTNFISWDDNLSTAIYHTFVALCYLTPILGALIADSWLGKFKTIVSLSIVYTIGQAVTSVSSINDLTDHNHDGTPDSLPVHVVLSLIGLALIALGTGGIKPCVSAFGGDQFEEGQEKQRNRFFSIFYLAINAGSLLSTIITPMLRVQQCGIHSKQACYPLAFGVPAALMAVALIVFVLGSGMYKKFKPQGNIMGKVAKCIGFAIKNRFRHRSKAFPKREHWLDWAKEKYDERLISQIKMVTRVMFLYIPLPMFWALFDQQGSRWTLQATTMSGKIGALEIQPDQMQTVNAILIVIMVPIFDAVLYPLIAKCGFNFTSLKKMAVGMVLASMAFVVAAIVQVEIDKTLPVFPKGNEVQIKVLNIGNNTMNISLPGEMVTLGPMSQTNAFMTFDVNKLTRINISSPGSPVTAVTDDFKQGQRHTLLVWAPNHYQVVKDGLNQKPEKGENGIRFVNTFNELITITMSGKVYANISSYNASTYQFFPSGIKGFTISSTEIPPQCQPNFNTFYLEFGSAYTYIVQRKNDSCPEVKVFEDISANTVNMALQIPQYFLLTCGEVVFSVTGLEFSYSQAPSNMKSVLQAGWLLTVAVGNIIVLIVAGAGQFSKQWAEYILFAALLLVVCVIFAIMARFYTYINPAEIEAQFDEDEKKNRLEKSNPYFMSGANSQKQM
Particulars: value obtained by refitting data presented in Thorn et al.; cited from earlier work.

Assay [2] concerns the target T1, hPEPT1. The class given is cell-based. To be noted: for affinity for hPEPT1 compared to the lead promoiety H-Phe-Ser-Ala-OH: statistical comparison, N = 3.
Assay [3] concerns the target T1, hPEPT1. To be noted: investigation of 55 tripeptides; cited from earlier work.

For H-Phe-Ser-Ala-OH, the Ki at hPEPT1 [1] was 260 µM.
As to `N[C@@H](Cc1ccccc1)C(=O)C[C@@H](COC(=O)c1ccccc1)C(=O)N[C@H](C(=O)O)C1CCCCC1.O=C(O)C(F)(F)F` [Compound 14C, H-Phe-ψ[COCH2]Ser(Bz)-Chg-OH], at hPEPT1 [2], the Ki turned out to be 50 µM and the “affinity for hPEPT1 compared to the lead promoiety H-Phe-Ser-Ala-OH” value is “significantly higher affinity”.
On to Asp-Ile-Arg, for which the “interaction with hPEPT1 in translocation study” value at hPEPT1 [3] is “not recognized by hPEPT1”.
Consider `C[C@H](NC(=O)[C@H](COC(=O)c1ccccc1)CC(=O)[C@@H](N)Cc1ccccc1)C(=O)O.O=C(O)C(F)(F)F` [Compound 14A, H-Phe-ψ[COCH2]Ser(Bz)-Ala-OH], for which the “affinity for hPEPT1 compared to the lead promoiety H-Phe-Ser-Ala-OH” value on hPEPT1 [2] is given as “did not have significantly different affinities”.
Same read-out and setting: the result for `CCC[C@H](NC(=O)[C@H](COC(=O)c1ccccc1)CC(=O)[C@@H](N)Cc1ccccc1)C(=O)O.O=C(O)C(F)(F)F` [Compound 14B, H-Phe-ψ[COCH2]Ser(Bz)-Nva-OH] reads “did not have significantly different affinities”.
As for Met-Pro-Pro, the “interaction with hPEPT1 in translocation study” value at hPEPT1 [3] was “inhibitor”.
